Data: patent US20230135729A1, “COMPOUND WITH ANTI-SPORE ACTIVITY AND PHARMACEUTICAL COMPOSITION THEREOF” (priority 2020, published 2023)
≈ marks a conversion by molar mass, not a printed value.

How the values were obtained:
Assay type in all cases: cell-based
[1] = system: spores of ATCC BBA1870 strain; assay: Inhibition of germination of C. difficile spores (MIC), strain ATCC BBA1870; settings: Clostridioides difficile, ATCCBBA1870STRAIN, 1 h; strain 1870; sodium taurocholate as germinant, BHIS medium, 37° C., OD580 for 60 min; read-out: MIC (minimum concentration that completely inhibits spore germination)
Procedure: (§1) According to a method disclosed in “The Journal of Infectious Diseases. 2013; 207: 1498-504”, spores of ATCC BBA1870, ATCC 43255 and ATCC 630 strains were obtained by culture and purification, and stored at 4° C.
(§2) Spore preparation: the C. difficile spores stored at 4° C. were heat-activated for 30 min at 65° C., centrifuged at 9,400 g for 2 min, and washed three times to remove any self-germinating spores.
(§3) Control drug: three cholic acid derivatives, a compound CamSA, a compound 20β (prepared by the method of “Journal of Medicinal Chemistry. 2017, 60 (8): 3451-3471”), and a compound 12a (prepared by the method of “Journal of Medicinal Chemistry. 2018, 61, 6759-6778”), were used as control drugs.
(§4) Compound preparation: the compound of the present disclosure, and the positive control drugs CamSA, 20β, and 12a were dissolved in DMSO, to prepare a stock solution with a concentration of 10 mM (prepared for immediate use).
(§5) The detection was conducted in a 96-well cell culture plate at a constant temperature of 37° C.; a final volume of each well of the 96-well plate was […] and a buffer was the BHIS medium; 150 μl of spores and drugs were added to the well in advance, and 50 μl of 4 mg/ml sodium taurocholate was added; OD580 was detected every 1 min immediately using a microplate reader, for continuously 60 min. A germination agent control group and a non-germination group were set up; after the detection, a final OD value of each well was compared with an initial value, and compared with the germination agent group to calculate a germination rate and an inhibition rate. A formula for the germination rate was:
(§6) Inhibition rate=100%−germination rate.

[2] = system: spores of ATCC 43255 strain; assay: Inhibition of germination of C. difficile spores (MIC), strain ATCC 43255; settings: Clostridioides difficile, ATCC43255, 1 h; strain 43255; sodium taurocholate as germinant, BHIS medium, 37° C., OD580 for 60 min; read-out: MIC (minimum concentration that completely inhibits spore germination)
Procedure: as §1, §2, §3, §4, §5, §6

[3] = system: spores of ATCC 630 strain; assay: Inhibition of germination of C. difficile spores (MIC), strain ATCC 630; settings: Clostridioides difficile, ATCC630, 1 h; strain 630; sodium taurocholate as germinant, BHIS medium, 37° C., OD580 for 60 min; read-out: MIC (minimum concentration that completely inhibits spore germination)
Procedure: as §1, §2, §3, §4, §5, §6

| SMILES | MIC [1] [µM] | MIC [2] [µM] | MIC [3] [µM] |
| --- | --- | --- | --- |
| CC[C@@H](NC(=O)C[C@@H](C)[C@H]1CC[C@H]2[C@@H]3[C@H](OC(C)=O)CC4=CC(=O)C=C[C@]4(C)[C@H]3CC[C@]12C)c1ccc(Br)s1 [I-159 -1] | 0.5 (≈ 0.308 µg/mL) | 0.5 (≈ 0.308 µg/mL) | 0.5 (≈ 0.308 µg/mL) |
| CC(NC(=O)C[C@@H](C)[C@H]1CC[C@H]2[C@@H]3C(=O)C[C@@H]4CC(=O)CC[C@]4(C)[C@H]3CC[C@]12C)c1cccs1 (stereo partly drawn) [Compound I-27] | 2 (≈ 0.967 µg/mL) | 2 (≈ 0.967 µg/mL) | 2 (≈ 0.967 µg/mL) |
| CC[C@@H](NC(=O)C[C@@H](C)[C@H]1CC[C@H]2[C@@H]3C(=O)C[C@@H]4CC(=O)CC[C@]4(C)[C@H]3CC[C@]12C)c1ccc(C(C)=O)s1 [Compound I-201] | 32 (≈ 17.3 µg/mL) | 32 (≈ 17.3 µg/mL) | 32 (≈ 17.3 µg/mL) |
| C[C@H](CC(=O)NCc1cccs1)[C@H]1CC[C@H]2[C@@H]3[C@@H](O)C[C@@H]4C[C@H](O)CC[C@]4(C)[C@H]3CC[C@]12C [Compound I-12] | 128 (≈ 60.6 µg/mL) | 256 (≈ 121 µg/mL) | 256 (≈ 121 µg/mL) |
| CC[C@@H](NC(=O)C[C@@H](C)[C@H]1CC[C@H]2[C@@H]3[C@H](O)C[C@@H]4CC(=O)CC[C@]4(C)[C@H]3CC[C@]12C)c1cccs1 [Compound I-133] | 2 (≈ 1 µg/mL) | 2 (≈ 1 µg/mL) | 2 (≈ 1 µg/mL) |
| CC[C@H](NC(=O)C[C@@H](C)[C@H]1CC[C@H]2[C@@H]3[C@H](O)C[C@@H]4CC(=O)CC[C@]4(C)[C@H]3CC[C@]12C)c1ccc(Cl)s1 [Compound I-87] | 256 (≈ 137 µg/mL) | 128 (≈ 68.4 µg/mL) | 128 (≈ 68.4 µg/mL) |
| CC[C@@H](NC(=O)C[C@@H](C)[C@H]1CC[C@H]2[C@@H]3[C@@H](O)C[C@@H]4CC(=O)CC[C@]4(C)[C@H]3CC[C@]12C)c1ccc(Cl)s1 [Compound I-163] | 32 (≈ 17.1 µg/mL) | 32 (≈ 17.1 µg/mL) | 32 (≈ 17.1 µg/mL) |
| CC[C@H](NC(=O)C[C@@H](C)[C@H]1CC[C@H]2[C@@H]3[C@H](OS(=O)(=O)O)C[C@@H]4CC(=O)CC[C@]4(C)[C@H]3CC[C@]12C)c1ccc(Cl)s1 [Compound I-105] | > 256 | > 256 | > 256 |
| CC(C)[C@H](NC(=O)C[C@@H](C)[C@H]1CC[C@H]2[C@@H]3[C@H](O)C[C@@H]4CC(=O)CC[C@]4(C)[C@H]3CC[C@]12C)c1ccc(S(=O)(=O)O)s1 [Compound I-102] | > 256 | > 256 | > 256 |
| CC[C@@H](NC(=O)C[C@@H](C)[C@H]1CC[C@H]2[C@@H]3[C@H](OC(C)=O)CC4=CC(=O)CC[C@]4(C)[C@H]3CC[C@]12C)c1ccc(Cl)s1 [I-157 -1] | 0.5 (≈ 0.287 µg/mL) | 0.5 (≈ 0.287 µg/mL) | 0.25 (≈ 0.144 µg/mL) |
| CC(C)[C@@H](NC(=O)C[C@@H](C)[C@H]1CC[C@H]2[C@@H]3[C@@H](O)C[C@@H]4C[C@H](O)CC[C@]4(C)[C@H]3CC[C@]12C)c1ccc(Br)s1 [Compound I-142] | 32 (≈ 19 µg/mL) | 32 (≈ 19 µg/mL) | 32 (≈ 19 µg/mL) |
| CCC(NC(=O)C[C@@H](C)[C@H]1CC[C@H]2[C@@H]3[C@H](O)C[C@@H]4CC(=O)CC[C@]4(C)[C@H]3CC[C@]12C)c1cccs1 (stereo partly drawn) [Compound I-84] | 1 (≈ 0.5 µg/mL) | 1 (≈ 0.5 µg/mL) | 1 (≈ 0.5 µg/mL) |
| CC[C@@H](NC(=O)C[C@@H](C)[C@H]1CC[C@H]2[C@@H]3C(=O)C[C@@H]4C[C@H](O)CC[C@]4(C)[C@H]3CC[C@]12C)c1ccc(Cl)s1 [Compound I-149] | 2 (≈ 1.07 µg/mL) | 2 (≈ 1.07 µg/mL) | 2 (≈ 1.07 µg/mL) |
| CC(C)C(NC(=O)C[C@@H](C)[C@H]1CC[C@H]2[C@@H]3C[C@H](O)[C@@H]4CC(=O)CC[C@]4(C)[C@H]3CC[C@]12C)c1ccc(Br)s1 (stereo partly drawn) [Compound I-130] | 4 (≈ 2.37 µg/mL) | 4 (≈ 2.37 µg/mL) | 4 (≈ 2.37 µg/mL) |
| C[C@H](CC(=O)NCc1ccco1)[C@H]1CC[C@H]2[C@@H]3[C@@H](O)C[C@@H]4C[C@H](O)CC[C@]4(C)[C@H]3CC[C@]12C [Compound I-11] | 64 (≈ 29.3 µg/mL) | 64 (≈ 29.3 µg/mL) | 64 (≈ 29.3 µg/mL) |
| CCCCCC(NC(=O)C[C@@H](C)[C@H]1CC[C@H]2[C@@H]3C(=O)C[C@@H]4CC(=O)CC[C@]4(C)[C@H]3CC[C@]12C)c1cccs1 (stereo partly drawn) [Compound I-44] | 256 (≈ 138 µg/mL) | > 256 | > 256 |
| CC(C)C(NC(=O)C[C@@H](C)[C@H]1CC[C@H]2[C@@H]3[C@H](O)C[C@@H]4CC(=O)CC[C@]4(C)[C@H]3CC[C@]12C)c1ccc(Cl)s1 (stereo partly drawn) [Compound I-95] | 0.25 (≈ 0.137 µg/mL) | 0.25 (≈ 0.137 µg/mL) | 0.25 (≈ 0.137 µg/mL) |
| CC(C)[C@@H](NC(=O)C[C@@H](C)[C@H]1CC[C@H]2[C@@H]3[C@H](OC(=O)CCC(=O)O)C[C@@H]4CC(=O)CC[C@]4(C)[C@H]3CC[C@]12C)c1ccc(Cl)s1 [Compound I-181] | 2 (≈ 1.3 µg/mL) | 2 (≈ 1.3 µg/mL) | 2 (≈ 1.3 µg/mL) |
| CC[C@@H](NC(=O)C[C@@H](C)[C@H]1CC[C@H]2[C@@H]3[C@H](OC(=O)CCC(=O)O)C[C@@H]4CC(=O)CC[C@]4(C)[C@H]3CC[C@]12C)c1ccc(Br)s1 [Compound I-180] | 2 (≈ 1.36 µg/mL) | 2 (≈ 1.36 µg/mL) | 1 (≈ 0.679 µg/mL) |
| C[C@H](CC(=O)NCc1cccs1)[C@H]1CC[C@H]2[C@@H]3[C@H](O)C[C@@H]4C[C@H](O)CC[C@]4(C)[C@H]3C[C@H](O)[C@]12C [Compound I-18] | 32 (≈ 15.7 µg/mL) | 8 (≈ 3.92 µg/mL) | 8 (≈ 3.92 µg/mL) |
| CCC(NC(=O)C[C@@H](C)[C@H]1CC[C@H]2[C@@H]3C(=O)C[C@@H]4CC(=O)CC[C@]4(C)[C@H]3CC[C@]12C)c1ccc(S(=O)(=O)O)s1 (stereo partly drawn) [Compound I-39] | 1 (≈ 0.578 µg/mL) | 0.5 (≈ 0.289 µg/mL) | 0.5 (≈ 0.289 µg/mL) |
| CC(C)[C@H](NC(=O)C[C@@H](C)[C@H]1CC[C@H]2[C@@H]3C(=O)C[C@@H]4CC(=O)CC[C@]4(C)[C@H]3CC[C@]12C)c1ccc(Cl)s1 [Compound I-76] | > 256 | > 256 | > 256 |
| CCC(NC(=O)C[C@@H](C)[C@H]1CC[C@H]2[C@@H]3[C@H](O)C[C@@H]4CC(=O)CC[C@]4(C)[C@H]3CC[C@]12C)c1ccc(Cl)s1 (stereo partly drawn) [Compound I-86] | 0.5 (≈ 0.267 µg/mL) | 0.5 (≈ 0.267 µg/mL) | 0.5 (≈ 0.267 µg/mL) |
| CCCCCCCC(=O)O[C@@H]1C[C@@H]2CC(=O)CC[C@]2(C)[C@H]2CC[C@]3(C)[C@@H]([C@H](C)CC(=O)N[C@@H](c4ccc(Cl)s4)C(C)C)CC[C@H]3[C@H]12 [Compound I-185] | 128 (≈ 86.3 µg/mL) | 128 (≈ 86.3 µg/mL) | 128 (≈ 86.3 µg/mL) |
| CC[C@@H](NC(=O)C[C@@H](C)[C@H]1CC[C@H]2[C@@H]3[C@H](O)C[C@@H]4C[C@H](OC)CC[C@]4(C)[C@H]3CC[C@]12C)c1ccc(Cl)s1 [Compound I-169] | 256 (≈ 141 µg/mL) | 256 (≈ 141 µg/mL) | 128 (≈ 70.4 µg/mL) |
| C[C@H](CC(=O)NC(CC(=O)O)c1ccccc1)[C@H]1CC[C@H]2[C@@H]3C(=O)C[C@@H]4CC(=O)CC[C@]4(C)[C@H]3CC[C@]12C (stereo partly drawn) [Compound I-64] | > 256 | > 256 | > 256 |
| CC[C@@H](NC(=O)C[C@@H](C)[C@H]1CC[C@H]2[C@@H]3[C@H](N)C[C@@H]4C[C@H](O)CC[C@]4(C)[C@H]3CC[C@]12C)c1ccc(Cl)s1 [Compound I-171] | 32 (≈ 17.1 µg/mL) | 32 (≈ 17.1 µg/mL) | 32 (≈ 17.1 µg/mL) |
| CC[C@@H](NC(=O)C[C@@H](C)[C@H]1CC[C@H]2[C@@H]3C(=O)C[C@@H]4CC(=O)CC[C@]4(C)[C@H]3CC[C@]12C)c1ccc(Cl)s1 [Compound I-70] | 0.25 (≈ 0.133 µg/mL) | 0.5 (≈ 0.266 µg/mL) | 0.25 (≈ 0.133 µg/mL) |
| CC(C)[C@H](NC(=O)C[C@@H](C)[C@H]1CC[C@H]2[C@@H]3[C@H](OS(=O)(=O)O)C[C@@H]4CC(=O)CC[C@]4(C)[C@H]3CC[C@]12C)c1ccc(Br)s1 [Compound I-114] | > 256 | > 256 | > 256 |
| CC(C)[C@@H](NC(=O)C[C@@H](C)[C@H]1CC[C@H]2[C@@H]3C(=O)C[C@@H]4CC(=O)CC[C@]4(C)[C@H]3CC[C@]12C)c1cccs1 [Compound I-66] | 0.25 (≈ 0.128 µg/mL) | 0.25 (≈ 0.128 µg/mL) | 0.25 (≈ 0.128 µg/mL) |
